Earlier results in patent publication US8076449B2, “Therapeutic agents of colivelin for neurodegenerative diseases” (Tomohiro Chiba, priority 2004, dated 2011).

Assays:
[1] = tested on: F11 cells transformed with M146L-PS1; conditions: as already reported; cited from earlier work
[2] = tested on: primary cultured cortical neurons treated with Aβ (1-43); conditions: Aβ (1-43) neurotoxicity; stated as known fact; cited from earlier work

HNG: Humanin (HN) derivative whose serine residue at the position 14 is replaced by glycine (MAPRGFSCLLLLTGEIDLPVKRRA; Humanin; UniProt Q8IVG9 1-24, looked up, variant S14G)
concentration completely suppressing cell death caused by M146L-PS1 [1]: 100 nM
concentration exerting complete protective action [2]: 10 nM
